Laboratory results: US12168677B2, “Proteins for the treatment of epithelial barrier function disorders” (Genevive, Inc., priority 2017, dated 2024)
“Also recorded” adds a separate entry of the source.

Key:
[1] = design: species or system mice; conditions: mouse, in vivo, ip
[2] = test system: HCT8 enterocytes and HT29-MTX goblet cells; assay: Epithelial cell wound healing (Oris Cell Migration assay); assay type: cell-based, human; conditions: SG protein 1 μg/ml, EGF 30 ng/ml, staurosporine 100 nM; 48 hours
Text: HCT8 enterocytes and HT29-MTX goblet cells were used in wound healing studies. The 96 well Oris Cell Migration assay containing plugs preventing cell attachment in the center of each well was used according to the manufacturer's instructions (Platypus Technologies, Madison, WI). The migration assay plates were warmed to room temperature prior to use and plugs were removed from 100% confluence wells prior to cell addition. The HCT8 enterocyte and HT29-MTX goblet cell lines were used at a 9:1 ratio with a total of 5×10^4 total cells added per well (4.5×10^4 HCT8 cells and 0.5×10^4 HT29-MTX cells). […] Plugs were then removed from all control and sample wells. Control wells included cells treated with the diluent vehicle as the blank, 30 ng/ml epidermal growth factor (EGF) as the positive control, and 100 nM staurosporine as the negative control, all diluted in cRPMI. Sample wells contained SG-15 protein at a concentration of 1 μg/ml diluted in cRPMI. 100% and 0% wells were cultured in cRPMI. […] Prior to staining for viable cells, plugs were removed from the 0% wells. Treatment media was removed and cells were washed in PBS containing 0.9 mM CaCl2) and 0.5 mM MgCl2. […] Samples were normalized between 100% and 0% samples and values expressed as a percent growth.

[3] = test system: HCT8 enterocytes and HT29-MTX goblet cells; assay: Co-culture trans-epithelial electrical resistance (TEER) assay with heat killed E. coli challenge; assay type: cell-based, human; conditions: staurosporine 100 nM, negative control
Experimental: Assays were performed as described below in trans-well plates where co-cultures of multiple cell types were performed utilizing a permeable membrane to separate cells. In the apical (top) chamber, human colonic epithelial cells, consisting of a mixture of enterocytes and goblet cells, were cultured until cells obtained tight junction formation and barrier function capacity as assessed by measurement of trans-epithelial electrical resistance (TEER). In the basolateral chamber, monocytes were cultured separately. Epithelial cells were primed with inflammatory cytokines. The assays measured the effect of a therapeutic protein, i.e., SG-15, on epithelial barrier function, wound healing, and production of cytokines. Cell culture. The HCT8 human enterocyte cell line (ATCC Cat. No. CCL-244) was maintained in RPMI-1640 medium supplemented with 10% fetal bovine serum, 100 IU/ml penicillin, 100 μg/ml streptomycin, 10 μg/ml gentamicin and 0.25 μg/ml amphotericin (cRPMI). […] Epithelial cells were trypsinized from culture flasks and viable cells determined by trypan blue counting. […] Trans-epithelial electrical resistance (TEER) readings were measured after the IFN-γ treatment and were used as the pre-treatment TEER values. […]

DSS treated mice [4] = assay: DSS model: colon weight to length ratio; assay type: in vivo, C57BL/6 mice; conditions: Gly2-GLP2 i.p. b.i.d.; 2.5% DSS 6 days
Experimental: Eight-week old C57BL/6 mice were housed 5 animals were cage and given food and water ad libitum for 7 days. Following the 7-day acclimation period, treatments were initiated concurrently with addition of 2.5% DSS to the drinking water. […] The mice were treated with 2.5% dextran sodium sulfate (DSS) in their drinking water for 6 days. Treatments were continued with SG-15 or […]-GLP2 twice a day (b.i.d.) in the morning and evening (every 8 and 16 hr) with i.p. injections at 50 nmoles/kg. Fresh 2.5% DSS drinking water was prepared every 2 days. Colon length and weight were measured in mice included in the DSS model study described in Example 1E. […] Accordingly, the ratio of tissue weight to length can be used as a readout of DSS induced tissue damage. SG-15 administration to DSS treated mice (Example 1E) reduced the colon weight to length ratio elicited by DSS (DSS=3.9 mg/mm, DSS+SG-15=3.5 mg/mm; p=0.13). […] However, no difference was observed between treated with SG-15 as compared to treatment with […]GLP2. The graph in FIG. 9 represents data pooled from the 2 individual experiments (n=20).

DSS treated mice [5] = assay: DSS model: colon length; assay type: in vivo, C57BL/6 mice; conditions: 50 nmoles/kg i.p. b.i.d.; 2.5% DSS 6 days
Experimental: Eight-week old C57BL/6 mice were housed 5 animals were cage and given food and water ad libitum for 7 days. Following the 7-day acclimation period, treatments were initiated concurrently with addition of 2.5% DSS to the drinking water. […] The mice were treated with 2.5% dextran sodium sulfate (DSS) in their drinking water for 6 days. Treatments were continued with SG-15 or […]-GLP2 twice a day (b.i.d.) in the morning and evening (every 8 and 16 hr) with i.p. injections at 50 nmoles/kg. Fresh 2.5% DSS drinking water was prepared every 2 days. Colon length was measured in mice included in the DSS model described in Example 1E. […] The graph in FIG. 8 represents data pooled from the 2 individual experiments (n=20).

For “fluorescently labeled bovine serum albumin: tracer protein for tracking studies following intraperitoneal injection”, the “Time at which protein reached the colon after i.p. delivery” value [1] was 6 h.

For “epidermal growth factor (NSDSECPLSHDGYCLHDGVCMYIEALDKYACNCVVGYIGERCQYRDLKWWELR; Epidermal growth factor; UniProt P01133 971-1023, looked up) [EGF, positive control in wound healing assay, reference compound]”, the “Wound healing, percent growth” value [2] was “increasing proliferation”.

In the case of `CN[C@@H]1C[C@H]2O[C@@](C)([C@@H]1OC)n1c3ccccc3c3c4c(c5c6ccccc6n2c5c31)C(=O)NC4` [staurosporine, reference compound], the “Wound healing, percent growth” value [2] is reported as “suppressing cell proliferation” and the “Effect of control compound on TEER” value [3] is reported as “drastic decrease in TEER”.

For “Gly2-GLP2: a stable analog of glucagon-like peptide 2 (GLP2), positive control in DSS model”, the “Colon weight to length ratio, effect of positive control in DSS mice” value (DSS treated mice [4]) was “significant reduction in colon weight to length ratio”, the “Colon length / colon shortening elicited by DSS treatment” value (DSS treated mice [5]) was “significant improvement in colon length” and the “Colon length, Gly2-GLP2 compared with SG protein” value (DSS treated mice [5]) was “significant improvement over SG-16; also recorded: significant improvement over SG-17; also recorded: significant improvement over SG-18”.
